Source: US11696913B2, “Prolonged ectoparasite-controlling agent for animal” (MITSUI CHEMICALS AGRO, INC., priority 2017, dated 2023)
Where two headings read alike, the source gives them in different places.

What was measured:
Spodoptera litura = assay: Insecticidal testing against common cutworm; assay type: in vivo; settings: foliar, 144 h, concentration 100 ppm, cabbage leaf dip, second-stage larvae, after 6 days, read-out: pesticidal rate
From the text: Insecticidal Testing Against Common Cutworm (Spodoptera litura)

Rhipicephalus sanguineus = assay: In vitro contact test with adult hard ticks (Rhipicephalus sanguineus); settings: read-out: acaricidal activity; for pest or weed control at 0.04 µg/cm2, 0.04 µg/cm2: dose 0.04 μg/cm^2, 48 h; for pest or weed control at 0.2 µg/cm2, 0.2 µg/cm2: dose 0.2 μg/cm^2, 48 h; for pest or weed control at 1 µg/cm2, 1 µg/cm2: dose 1 μg/cm^2, 48 h
Summary of the method: (§1)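 Adult R. sanguineus, I. ricinus, D. variabilis or A. americanum nymphs exposed in glass vials coated with compound from acetone (900 ppm gives 5 μg/cm^2). Held 48 h at room temperature (R. sanguineus) or 21° C., 85% rel. hum.; then heated at 45-50° C. ≤5 min, motionless or uncoordinated ticks scored dead/moribund.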

Ctenocephalides felis [1] = assay: Ctenocephalides felis in-vitro feeding test with fleas (CTECFE oral); settings: 48 hours, read-out: insecticidal feeding activity; for pest or weed control at 0.16 ppm: dose 0.16 ppm in citrated cattle blood; for pest or weed control at 0.8 ppm: dose 0.8 ppm in citrated cattle blood; for pest or weed control at 4 ppm: dose 4 ppm in citrated cattle blood; for pest or weed control at 0.032 ppm: dose 0.032 ppm in citrated cattle blood
Summary of the method: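 About 20 unfed adult cat fleas fed through parafilm on citrated cattle blood containing test substance (DMSO solution diluted in blood), held at about 37° C. Kill rate scored after 48 hours, 100% meaning all fleas dead.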

Dermacentor variabilis [2] = assay: Systemic treatment in-vivo test with American dog tick nymph on rats; settings: Dermacentor variabilis, ip, intraperitoneal injection
Protocol: Systemic Treatment In-Vivo Test with American Dog Tick Nymph and Cat Flea on Rats
Type of study and overall study design: The method is a randomized non-blinded efficacy study in accordance with European animal welfare requirements. Rats (Rattus norvegicus) were randomized based on pre-treatment flea counts. The efficacy of treatment was determined by comparison of the flea and tick counts of different treatment groups versus the placebo-treated control group. The experimental unit was the individual study animal. Method and route of administration: The compound was applied in a suitable solvent and carrier (more specifically, added to glycerol formal; in case of poorly soluble compounds, a solvent mixture with up to 25% by volume of N-methyl pyrrolidone may be used.) considering the individual body weight as an intraperitoneal injection.
Experimental infestation: On the day of treatment and weekly thereafter, 30 ticks (D. variabilis nymphs) were released onto the back of each rat, and 30 fleas (C. felis) were released onto the back of each rat 24 h later.
Tick and Flea counting: Rats were thoroughly examined and ticks and fleas were manually removed 48 h (±4 h) after tick infestation and 24 h after flea infestation. Live fleas and live attached engorged ticks were counted. In non-evident cases, engorgement status was evaluated by squeezing the tick on a filter paper to find traces of blood as sign for engorgement.

Dermacentor variabilis [3] = assay: In vitro contact test with adult hard ticks (Dermacentor variabilis); settings: read-out: acaricidal activity; for pest or weed control at 0.2 µg/cm2, 0.2 µg/cm2: dose 0.2 μg/cm^2, 48 h; for pest or weed control at 1 µg/cm2, 1 µg/cm2: dose 1 μg/cm^2, 48 h
Summary of the method: as §1

Laodelphax striatellus = assay: Insecticidal testing against small brown planthopper; assay type: in vivo; settings: 144 h, concentration 100 ppm, sprayed rice seedlings, after 6 days, read-out: pesticidal rate
Summary of the method: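 Acetone solution of compound at a set concentration sprayed onto rice seedlings, air-dried, then exposed to 10 planthoppers (one group). Held at 25° C; survival rate recorded after 6 days.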

Ctenocephalides felis [4] = assay: In vitro contact test with fleas; settings: read-out: insecticidal activity; for pest or weed control at 0.04 µg/cm2, 0.04 µg/cm2: dose 0.04 μg/cm^2, dead or moribund fleas after 48 h; for pest or weed control at 0.2 µg/cm2, 0.2 µg/cm2: dose 0.2 μg/cm^2, dead or moribund fleas after 48 h; for pest or weed control at 1 µg/cm2, 1 µg/cm2: dose 1 μg/cm^2, dead or moribund fleas after 48 h
Summary of the method: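 Adult male and female cat fleas (5-10 per tube) placed in glass tubes coated with compound from acetone solution (900 ppm gives 5 μg/cm^2), kept at room temperature and ambient humidity. After 48 h, motionless or uncoordinated fleas scored dead or moribund; activity expressed as % dead or moribund.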

[5] = SD 2, read-out: Geometric mean percent reduction in live tick (Dermacentor variabilis) counts compared to untreated control rats
[6] = SD 9, read-out: Geometric mean percent reduction in live tick (Dermacentor variabilis) counts compared to untreated control rats
[7] = SD 16, read-out: Geometric mean percent reduction in live tick (Dermacentor variabilis) counts compared to untreated control rats
[8] = SD 23, read-out: Geometric mean percent reduction in live tick (Dermacentor variabilis) counts compared to untreated control rats
[9] = SD 30, read-out: Geometric mean percent reduction in live tick (Dermacentor variabilis) counts compared to untreated control rats

SMILES | pest or weed control at 100 ppm (Spodoptera litura) | pest or weed control at 0.04 µg/cm2, 0.04 µg/cm2 (Rhipicephalus sanguineus) | pest or weed control at 0.2 µg/cm2, 0.2 µg/cm2 (Rhipicephalus sanguineus) | pest or weed control at 1 µg/cm2, 1 µg/cm2 (Rhipicephalus sanguineus) | pest or weed control at 0.16 ppm (Ctenocephalides felis [1]) | pest or weed control at 0.8 ppm (Ctenocephalides felis [1]) | pest or weed control at 4 ppm (Ctenocephalides felis [1]) | inhibition in vivo at 2 mg/kg (Dermacentor variabilis [2]; [5]) | inhibition in vivo at 10 mg/kg (Dermacentor variabilis [2]; [5]) | inhibition in vivo at 10 mg/kg (Dermacentor variabilis [2]; [6]) | inhibition in vivo at 10 mg/kg (Dermacentor variabilis [2]; [7]) | inhibition in vivo at 10 mg/kg (Dermacentor variabilis [2]; [8]) | inhibition in vivo at 10 mg/kg (Dermacentor variabilis [2]; [9]) | pest or weed control at 0.2 µg/cm2, 0.2 µg/cm2 (Dermacentor variabilis [3]) | pest or weed control at 1 µg/cm2, 1 µg/cm2 (Dermacentor variabilis [3]) | pest or weed control at 100 ppm (Laodelphax striatellus) | pest or weed control at 0.04 µg/cm2, 0.04 µg/cm2 (Ctenocephalides felis [4]) | pest or weed control at 0.2 µg/cm2, 0.2 µg/cm2 (Ctenocephalides felis [4]) | pest or weed control at 1 µg/cm2, 1 µg/cm2 (Ctenocephalides felis [4]) | pest or weed control at 0.032 ppm (Ctenocephalides felis [1]) | also measured
O=C(Nc1cccc(C(=O)Nc2c(I)cc(C(F)(C(F)(F)F)C(F)(F)F)cc2C(F)(F)F)c1F)c1ccc(C(F)(F)F)nc1 [Compound 67, N-(2-fluoro-3-((2-iodo-4-(perfluoropropan-2-yl)-6-(trifluoromethyl)phenyl)carbamoyl)phenyl)-6-(trifluoromethyl)nicotinamide] | ≥ 70% | 90% | 90% | 90% | 95% | 95% | 95% | 100% | 100% | 100% | 99% | 75% | 57% | 90% | 90% | ≥ 70% | 95% | 95% | 95% |  | inhibition in vivo at 2 mg/kg (Dermacentor variabilis [2]; [6]): 95%; inhibition in vivo at 2 mg/kg (Dermacentor variabilis [2]; [7]): 32%; inhibition in vivo at 2 mg/kg (Dermacentor variabilis [2]; [8]): 20%
CN(C(=O)c1ccc(F)cc1)c1cccc(C(=O)Nc2c(I)cc(C(F)(C(F)(F)F)C(F)(F)F)cc2OC(F)(F)F)c1F [Compound 74] | ≥ 70% | 90% | 90% | 90% | 95% | 95% | 95% |  | 100% | 100% | 90% | 89% | 78% | 90% | 90% | ≥ 70% | 95% | 95% | 95% | 95% | 
CN(C(=O)c1ccc(F)cc1)c1cccc(C(=O)Nc2c(I)cc(C(F)(C(F)(F)F)C(F)(F)C(F)(F)F)cc2OC(F)F)c1F (stereo not drawn) [Compound 103] | ≥ 70% |  | 90% | 90% | 95% | 95% | 95% |  | 100% | 100% | 74% | 43% |  | 90% | 90% | ≥ 70% | 95% | 95% | 95% | 95% | pest or weed control at 0.0064 ppm (Ctenocephalides felis [1]; dose 0.0064 ppm in citrated cattle blood): 95%; pest or weed control at 0.04 µg/cm2, 0.04 µg/cm2 (Dermacentor variabilis [3]; dose 0.04 μg/cm^2, 48 h): 90%
CN(C(=O)c1ccc(C(F)(F)F)nc1)c1cccc(C(=O)Nc2c(I)cc(C(F)(C(F)(F)F)C(F)(F)C(F)(F)F)cc2C(F)(F)F)c1F (stereo not drawn) [Compound 119] | ≥ 70% |  |  |  | 95% | 95% | 95% | 100% | 100% | 100% | 100% | 89% | 61% | 90% | 90% | ≥ 70% | 95% | 95% | 95% | 95% | inhibition in vivo at 2 mg/kg (Dermacentor variabilis [2]; [6]): 96%; inhibition in vivo at 2 mg/kg (Dermacentor variabilis [2]; [7]): 63%; inhibition in vivo at 2 mg/kg (Dermacentor variabilis [2]; [8]): 1%; inhibition in vivo at 2 mg/kg (Dermacentor variabilis [2]; [9]): 61%
